Structures can show the parent of a compound that is named as a salt. Where two headings read alike, the source gives them in different places.

The target of this assay is T1, rat brain farnesyl protein transferase (Rattus norvegicus, UniProt Q02293+Q04631).
T1 construct: 40-fold purified rat brain farnesyl protein transferase; from tissue; host or cells: rat brain
Briefly: Protein:farnesyltransferase (PFT/FPT) inhibitory activity assay. The assay is classed as biochemical.

Setting [1] is: Hepes (without 5 mM phosphate), read-out: Farnesyl Protein Transferase Inhibition, Hepes, IC50.
Where [2] appears, read: Hepes/5 mM PO4^-3, pH 7.4, read-out: Farnesyl Protein Transferase Inhibition, Hepes/5 mM PO4^-3, IC50.

For the molecule `N#CCOC(=O)[C@H](Cc1c[nH]cn1)NC(=O)C(Cc1cccc2ccccc12)Cc1cccc2ccccc12` [Example 58, (S )-3-(1H-Imidazol-4-yl)-2-(3-naphthalen-1-yl-2-naphthalen-1-ylmethyl-propionylamino)-propionic acid, cyanomethyl ester], the IC50 was found to be 0.4 µM under setting [1] and 0.51 µM under setting [2].

As to `CCC(C)OC(=O)[C@H](Cc1c[nH]cn1)NC(=O)C(Cc1cccc2ccccc12)Cc1cccc2ccccc12` (mixture of isomers) [Example 14, (S)-3-(1H-Imidazol-4-yl)-2-(3-naphthalen-1-yl-2-naphthalen-1-ylmethyl-propionylamino)-propionic acid, (±)-sec-butyl ester], the IC50 came to 0.82 µM under setting [1] and 0.54 µM under setting [2].

As to `CC(=O)NCCSC(=O)[C@H](Cc1c[nH]cn1)NC(=O)C(Cc1cccc2ccccc12)Cc1cccc2ccccc12` [Example 40, (S)-3-(1H-Imidazol-4-yl)-2-(3-naphthalen-1-yl-2-naphthalen-1-ylmethyl-propionylamino)-thiopropionic acid, S-(2-acetylamino-ethyl)ester], the IC50 amounted to 2.6 µM under setting [1] and 3.2 µM under setting [2].

In the case of `O=C(N[C@@H](Cc1c[nH]cn1)C(=O)OCCO)C(Cc1cccc2ccccc12)Cc1cccc2ccccc12` [Example 42, (S)-3-(1H-Imidazol-4-yl)-2-(3-naphthalen-1-yl-2-naphthalen-1-ylmethyl-propionylamino)-propionic acid, 2-hydroxy-ethyl ester, trifluoroacetate salt], the IC50 reads like this: under setting [1], 1.8 µM; under setting [2], 1.3 µM.

With `N#CCCOC(=O)[C@H](Cc1c[nH]cn1)NC(=O)C(CC1CCCC2CCCCC21)CC1CCCC2CCCCC21` (stereo partly drawn) [Example 45, (S)-2-[3-(Decahydro-naphthalen-1-yl)-2-(decahydro-naphthalen-1-ylmethyl)-propionylamino]-3-(1H-imidazol-4-yl)-propionic acid, 2-cyano-ethyl ester], the IC50 by setting is: under setting [1], 0.49 µM; under setting [2], 0.32 µM.

On to `CC(C#N)OC(=O)[C@H](Cc1c[nH]cn1)NC(=O)C(Cc1cccc2ccccc12)Cc1cccc2ccccc12` (mixture of isomers) [Example 61, (S)-3-(1H-Imidazol-4-yl)-2-(3-naphthalen-1-yl-2-naphthalen-1-ylmethyl-propionylamino)-propionic acid, (±)-1-cyano-ethyl ester], for which the IC50 under setting [1] amounted to 0.64 µM and the IC50 under setting [2] is 0.61 µM.

Take `COC(=O)[C@H](Cc1c[nH]cn1)NC(=O)C(Cc1csc2ccccc12)Cc1csc2ccccc12` [Example 39, (S)-2-(3-Benzo[b]thiophen-3-yl-2-benzo[b]thiophen-3-ylmethyl-propionylamino)-3-(1H-imidazol-4-yl)-propionic acid, methyl ester]: the IC50 is 1.2 µM under setting [1] and 0.97 µM under setting [2].

As for `CC(C)NC(=O)[C@H](Cc1c[nH]cn1)NC(=O)C(Cc1cccc2ccccc12)Cc1cccc2ccccc12` [Example 30, (S)-N-[2-(1H-Imidazol-4-yl)-1-isopropylcarbamoyl-ethyl]-3-naphthalen-1-yl-2-naphthalen-1-ylmethyl-propionamide], the IC50 worked out at 4.6 µM under setting [1] and 3.5 µM under setting [2].

With `O=C(N[C@H](Cc1c[nH]cn1)C(=O)O)C(Cc1cccc2ccccc12)Cc1cccc2ccccc12` [Example 4, (R)-3-(1H-Imidazol-4-yl)-2-(3-naphthalen-1-yl-2-naphthalen-1-ylmethyl-propionylamino)-propionic acid], the IC50 worked out at 6.1 µM under setting [1] and 19.5 µM under setting [2].

`C#CCOC(=O)[C@H](Cc1c[nH]cn1)NC(=O)C(Cc1cccc2ccccc12)Cc1cccc2ccccc12` [Example 16, (S)-3-(1H-Imidazol-4-yl)-2-(3-naphthalen-1-yl-2-naphthalen-1-ylmethyl-propionylamino)-propionic acid, prop-2-ynyl ester]: the IC50 by setting is: under setting [1], 0.5 µM; under setting [2], 0.59 µM.

With `CNC(=O)[C@H](Cc1cncn1C)NC(=O)C(Cc1cccc2ccccc12)Cc1cccc2ccccc12` [Example 64, (S)-N-[1-Methylcarbamoyl-2-(3-methyl-3H-imidazol-4-yl)-ethyl]-3-naphthalen-1-yl-2-naphthalen-1-ylmethyl-propionamide], the IC50 runs as follows: under setting [1], 0.61 µM; under setting [2], 0.46 µM.

For `NS(=O)(=O)c1ccc(CCNC(=O)[C@H](Cc2c[nH]cn2)NC(=O)C(Cc2cccc3ccccc23)Cc2cccc3ccccc23)cc1` [Example 35], the IC50 reads like this: under setting [1], 15 µM; under setting [2], 14 µM.

Turning to `O=C(N[C@@H](Cc1c[nH]cn1)C(=O)NCCn1ccnc1)C(Cc1cccc2ccccc12)Cc1cccc2ccccc12` [Example 25, (S)-N-[2-(1H-Imidazol-4-yl)-1-(2-imidazol-1-yl-ethylcarbamoyl)-ethyl]-3-naphthalen-1-yl-2-naphthalen-1-ylmethyl-propionamide], the IC50 runs as follows: under setting [1], 1.9 µM; under setting [2], 1.5 µM.

With `CCCNC(=O)[C@H](Cc1c[nH]cn1)NC(=O)C(Cc1cccc2ccccc12)Cc1cccc2ccccc12` [Example 46], the IC50 reads like this: under setting [1], 4.9 µM; under setting [2], 5.6 µM.

Take `O=C(N[C@@H](Cc1c[nH]cn1)C(=O)OCCOCc1ccccc1)C(Cc1cccc2ccccc12)Cc1cccc2ccccc12` [Example 18, (S)-3-(1H-Imidazol-4-yl)-2-(3-naphthalen-1-yl-2-naphthalen-1-ylmethyl-propionylamino)-propionic acid, 2-benzyloxyethyl ester]: the IC50 by setting is: under setting [1], 0.57 µM; under setting [2], 0.54 µM.

For `O=C(N[C@@H](Cc1c[nH]cn1)C(=O)NCCN1CCOCC1)C(Cc1cccc2ccccc12)Cc1cccc2ccccc12` [Example 31, (S)-N-[2-(1H-Imidazol-4-yl)-1-(2-morpholin-4-yl-ethylcarbamoyl)-ethyl]-3-naphthalen-1-yl-2-naphthalen-1-ylmethyl-propionamide], the IC50 under setting [1] turned out to be 26 µM and the IC50 under setting [2] amounted to 15 µM.

In the case of `O=C(N[C@@H](Cc1c[nH]cn1)C(=O)NCCOCc1ccccc1)C(Cc1cccc2c1CCCC2)Cc1cccc2c1CCCC2` [Example 38, (S)-N-[1-(2-Benzyloxy-ethylcarbamoyl)-2-(1H-imidazol-4-yl)-ethyl]-3-(5,6,7,8-tetrahydro-naphthalen-1-yl)-2-(5,6,7,8-tetrahydro-naphthalen-1-ylmethyl)-propionamide], the IC50 is, setting by setting: under setting [1], 0.78 µM; under setting [2], 0.85 µM.

As for `COC(=O)[C@H](Cc1c[nH]cn1)NCC(Cc1cccc2ccccc12)Cc1cccc2ccccc12` [Example 56, (S)-3-(1H-Imidazol-4-yl)-2-(3-naphthalen-1-yl-2-naphthalen-1-ylmethyl-propylamino)-propionic acid methyl ester], the IC50 stood at 0.37 µM under setting [1] and 0.36 µM under setting [2].

With `O=C(N[C@@H](Cc1c[nH]cn1)C(=O)NCCc1ccccc1)C(Cc1cccc2ccccc12)Cc1cccc2ccccc12` [Example 50], the IC50 is, setting by setting: under setting [1], 4.8 µM; under setting [2], 6 µM.

As to `O=C(N[C@@H](Cc1c[nH]cn1)C(=O)OCCn1ccnc1)C(Cc1cccc2ccccc12)Cc1cccc2ccccc12` [Example 47, (S)-3-[1H-Imidazol-4-yl)-2-(3-naphthalen-1-yl-2-naphthalen-1-ylmethyl-propionylamino)-propionic acid, 2-imidazol-1-yl-ethyl ester], the IC50 is, setting by setting: under setting [1], 1.1 µM; under setting [2], 1.4 µM.

`N#CCCOC(=O)[C@H](Cc1c[nH]cn1)NC(=O)C(Cc1cccc2c1CCCC2)Cc1cccc2c1CCCC2` [Example 49, (S)-3-(1H-Imidazol-4-yl)-2-[3-(5,6,7,8-tetrahydro-naphthalen-1-yl)-2-(5,6,7,8-tetrahydro-naphthalen-1-ylmethyl)-propionylamino]-propionic acid, 2-cyano-ethyl ester]: the IC50 under setting [1] is 0.29 µM and the IC50 under setting [2] came out at 0.37 µM.

On to `C#CCCOC(=O)[C@H](Cc1c[nH]cn1)NC(=O)C(Cc1cccc2ccccc12)Cc1cccc2ccccc12` [Example 44, (S)-3-(1H-Imidazol-4-yl)-2-(3-naphthalen-1-yl-2-naphthalen-1-ylmethyl-propionylamino)-propionic acid, but-3-ynyl ester, trifluoroacetate salt], for which the IC50 under setting [1] amounted to 0.23 µM and the IC50 under setting [2] was determined as 0.21 µM.

Turning to `CCN(CC)CCOC(=O)[C@H](Cc1c[nH]cn1)NC(=O)C(Cc1cccc2ccccc12)Cc1cccc2ccccc12` [Example 21, (S)-3-(1H-Imidazol-4-yl)-2-(3-naphthalen-1-yl-2-naphthalen-1-ylmethyl-propionylamino)-propionic acid, 2-diethylamino-ethyl ester], the IC50 under setting [1] was found to be 21 µM and the IC50 under setting [2] is 9 µM.

`O=C(N[C@@H](Cc1c[nH]cn1)C(=O)OCCSSCCO)C(Cc1cccc2ccccc12)Cc1cccc2ccccc12` [Example 59, (S)-3-(1H-Imidazol-4-yl)-2-(3-naphthalen-1-yl-2-naphthalen-1-ylmethyl-propionylamino)-propionic acid, 2-(2-hydroxy-ethyldisulfanyl)-ethyl ester]: the IC50 came out at 1.3 µM under setting [1] and 1 µM under setting [2].

Take `COCn1cncc1C[C@H](NC(=O)C(Cc1cccc2ccccc12)Cc1cccc2ccccc12)C(=O)OC` [Example 60, (S)-3-(3-Methoxymethyl-3H-imidazol-4-yl)-2-(3-naphthalen-1-yl-2-naphthalen-1-ylmethyl-propionylamino)-propionic acid, methyl ester]: the IC50 under setting [1] was 0.93 µM and the IC50 under setting [2] was 1 µM.

Consider `O=C(N[C@@H](Cc1c[nH]cn1)C(=O)OCC1CC1)C(Cc1cccc2ccccc12)Cc1cccc2ccccc12` [Example 12, (S)-3-(1H-Imidazol-4-yl)-2-(3-naphthalen-1-yl-2-naphthalen-1-ylmethyl-propionylamino)-propionic acid, cyclopropylmethyl ester], for which the IC50 under setting [1] came to 0.4 µM and the IC50 under setting [2] was 0.25 µM.
